Activity and Emax data for 2 compounds are collected here from ChEMBL document CHEMBL5543126, “Combinatorial Ubiquitination REal-time PROteolysis (CURE-PROs): A Modular Platform for Generating Reversible, Self-Assembling Bifunctional Targeted Degraders” (J Med Chem, 2024).

Common to all, as to format: cell-based
Assay [1] deals with Protein cereblon/Bromodomain-containing protein 4 (Homo sapiens) (UniProt O60885+Q96SW2). The assay can be described thus: PROTAC activity at BRD4/CRBN in human HeLa cells assessed as induction of BRD4 degradation at 10 uM incubated for 24 hrs in presence of CRBN based ligand N-((2-(2,6-dioxopiperidin-3-yl)-1,3-dioxoisoindolin-4-yl)methyl)-3,4-dihydroxybenzamide by Western blot analysis based Combinatorial Ubiquitination Real-time PROteolysis analysis. For orientation: In western blotting, separated proteins are transferred to a membrane and probed.

The target of assay [2] is T1, von Hippel-Lindau disease tumor suppressor/Bromodomain-containing protein 4 (Homo sapiens, UniProt O60885+P40337). The assay can be described thus: PROTAC activity at BRD4/VHL in human MCF7 cells assessed as induction of BRD4 degradation by measuring residual activity at 3 uM incubated for 24 hrs in presence of VHL based ligand (2S,4R)-1-((S)-2-(2,3-dihydroxybenzamido)-3,3-dimethylbutanoyl)-4-hydroxy-N-(4-(4-methylthiazol-5-yl)benzyl)pyrrolidine-2-carboxamide by Western blot based Combinatorial Ubiquitination Real-time PROteolysis analysis.

For assay [3], the target named is T1, von Hippel-Lindau disease tumor suppressor/Bromodomain-containing protein 4. The assay can be described thus: PROTAC activity at BRD4/VHL in human MCF7 cells assessed as induction of BRD4 degradation by measuring residual activity at 100 nM incubated for 24 hrs in presence of 100 nM VHL based ligand (2S,4R)-1-((S)-2-(2,3-dihydroxybenzamido)-3,3-dimethylbutanoyl)-4-hydroxy-N-(4-(4-methylthiazol-5-yl)benzyl)pyrrolidine-2-carboxamide by Western blot based Combinatorial Ubiquitination Real-time PROteolysis analysis.

Assay [4] has the same target. The assay is described as follows: PROTAC activity at BRD4/VHL in human MCF7 cells assessed as induction of BRD4 degradation by measuring residual activity at 300 nM incubated for 24 hrs in presence of 100 nM VHL based ligand (2S,4R)-1-((S)-2-(2,3-dihydroxybenzamido)-3,3-dimethylbutanoyl)-4-hydroxy-N-(4-(4-methylthiazol-5-yl)benzyl)pyrrolidine-2-carboxamide by Western blot based Combinatorial Ubiquitination Real-time PROteolysis analysis.

The target is the same in assay [5]. The assay can be described thus: PROTAC activity at BRD4/VHL in human MCF7 cells assessed as induction of BRD4 degradation by measuring residual activity at 3 uM incubated for 24 hrs in presence of 300 nM VHL based ligand (2S,4R)-1-((S)-2-(2,3-dihydroxybenzamido)-3,3-dimethylbutanoyl)-4-hydroxy-N-(4-(4-methylthiazol-5-yl)benzyl)pyrrolidine-2-carboxamide by Western blot based Combinatorial Ubiquitination Real-time PROteolysis analysis.

The target is the same in assay [6]. The assay is described as follows: PROTAC activity at BRD4/VHL in human MCF7 cells assessed as induction of BRD4 degradation by measuring residual activity at 10 uM incubated for 24 hrs in presence of 300 nM VHL based ligand (2S,4R)-1-((S)-2-(2,3-dihydroxybenzamido)-3,3-dimethylbutanoyl)-4-hydroxy-N-(4-(4-methylthiazol-5-yl)benzyl)pyrrolidine-2-carboxamide by Western blot based Combinatorial Ubiquitination Real-time PROteolysis analysis.

Assay [7] shares this target. The assay is described as follows: PROTAC activity at BRD4/VHL in human MCF7 cells assessed as induction of BRD4 degradation by measuring residual activity at 10 uM incubated for 24 hrs in presence of 1 uM VHL based ligand (2S,4R)-1-((S)-2-(2,3-dihydroxybenzamido)-3,3-dimethylbutanoyl)-4-hydroxy-N-(4-(4-methylthiazol-5-yl)benzyl)pyrrolidine-2-carboxamide by Western blot based Combinatorial Ubiquitination Real-time PROteolysis analysis.

Assay [8] shares this target. The assay can be described thus: PROTAC activity at BRD4/VHL in human MCF7 cells assessed as induction of BRD4 degradation by measuring residual activity at 300 nM incubated for 24 hrs in presence of 3 uM VHL based ligand (2S,4R)-1-((S)-2-(2,3-dihydroxybenzamido)-3,3-dimethylbutanoyl)-4-hydroxy-N-(4-(4-methylthiazol-5-yl)benzyl)pyrrolidine-2-carboxamide by Western blot based Combinatorial Ubiquitination Real-time PROteolysis analysis.

The target is the same in assay [9]. The assay is described as follows: PROTAC activity at VHL/BRD4 in HEK293 cells assessed as induction of BRD4 degradation by measuring maximal level of degradation at 0.3 uM measured every 15 mins for 24 hrs in presence of BRD4 based ligand ((4S)-6-(4-chlorophenyl)-4-(2-(ethylamino)-2-oxoethyl)-1-methyl4Hbenzo[f][1,2,4]triazolo [4,3-a][1,4]diazepin-8-yl)boronic acid by HiBiT based Combinatorial Ubiquitination Real-time PROteolysis analysis.

Assay [10] has the same target. The assay is described as follows: PROTAC activity at VHL/BRD4 in HEK293 cells assessed as induction of BRD4 degradation by measuring maximal level of degradation at 1 uM measured every 15 mins for 24 hrs in presence of BRD4 based ligand ((4S)-6-(4-chlorophenyl)-4-(2-(ethylamino)-2-oxoethyl)-1-methyl4Hbenzo[f][1,2,4]triazolo [4,3-a][1,4]diazepin-8-yl)boronic acid by HiBiT based Combinatorial Ubiquitination Real-time PROteolysis analysis. On the technique in general: With HiBiT, luminescence reflects the tagged protein that the partner subunit can reach.

For assay [11] the target is unchanged. The assay can be described thus: PROTAC activity at BRD4/VHL in human MCF7 cells assessed as induction of BRD4 degradation by measuring residual activity at 30 nM incubated for 24 hrs in presence of 100 nM BRD4 based ligand ((4S)-6-(4-chlorophenyl)-4-(2-(ethylamino)-2-oxoethyl)-1-methyl4Hbenzo[f][1,2,4]triazolo [4,3-a][1,4]diazepin-8-yl)boronic acid by Western blot based Combinatorial Ubiquitination Real-time PROteolysis analysis.

Assay [12] has the same target. The assay is described as follows: PROTAC activity at BRD4/VHL in human MCF7 cells assessed as induction of BRD4 degradation by measuring residual activity at 1 uM incubated for 24 hrs in presence of 300 nM BRD4 based ligand ((4S)-6-(4-chlorophenyl)-4-(2-(ethylamino)-2-oxoethyl)-1-methyl4Hbenzo[f][1,2,4]triazolo [4,3-a][1,4]diazepin-8-yl)boronic acid by Western blot based Combinatorial Ubiquitination Real-time PROteolysis analysis.

The target is the same in assay [13]. The assay can be described thus: PROTAC activity at BRD4/VHL in human MCF7 cells assessed as induction of BRD4 degradation by measuring residual activity at 100 nM incubated for 24 hrs in presence of 1 uM BRD4 based ligand ((4S)-6-(4-chlorophenyl)-4-(2-(ethylamino)-2-oxoethyl)-1-methyl4Hbenzo[f][1,2,4]triazolo [4,3-a][1,4]diazepin-8-yl)boronic acid by Western blot based Combinatorial Ubiquitination Real-time PROteolysis analysis.

The target is the same in assay [14]. The assay is described as follows: PROTAC activity at BRD4/VHL in human MCF7 cells assessed as induction of BRD4 degradation by measuring residual activity at 3 uM incubated for 24 hrs in presence of 10 uM BRD4 based ligand ((4S)-6-(4-chlorophenyl)-4-(2-(ethylamino)-2-oxoethyl)-1-methyl4Hbenzo[f][1,2,4]triazolo [4,3-a][1,4]diazepin-8-yl)boronic acid by Western blot based Combinatorial Ubiquitination Real-time PROteolysis analysis.

For assay [15] the target is unchanged. The assay is described as follows: PROTAC activity at BRD4/VHL in human MCF7 cells assessed as induction of BRD4 degradation by measuring residual activity at 10 uM incubated for 24 hrs in presence of 10 uM BRD4 based ligand ((4S)-6-(4-chlorophenyl)-4-(2-(ethylamino)-2-oxoethyl)-1-methyl4Hbenzo[f][1,2,4]triazolo [4,3-a][1,4]diazepin-8-yl)boronic acid by Western blot based Combinatorial Ubiquitination Real-time PROteolysis analysis.

Structures are written as SMILES. Active and inactive are the calls of the source. The calls are words filed in the database; no cut-off is given here.

T1 sequence (P40337 whole entry, looked up, other chains not shown): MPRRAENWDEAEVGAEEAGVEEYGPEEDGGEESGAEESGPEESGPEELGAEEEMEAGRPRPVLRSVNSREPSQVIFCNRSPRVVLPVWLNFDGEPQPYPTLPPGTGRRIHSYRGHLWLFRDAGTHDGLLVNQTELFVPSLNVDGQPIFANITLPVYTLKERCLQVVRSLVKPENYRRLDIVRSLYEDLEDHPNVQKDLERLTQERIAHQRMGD
Sequence of Protein cereblon/Bromodomain-containing protein 4 (Homo sapiens) (Q96SW2 whole entry, looked up, other chains not shown): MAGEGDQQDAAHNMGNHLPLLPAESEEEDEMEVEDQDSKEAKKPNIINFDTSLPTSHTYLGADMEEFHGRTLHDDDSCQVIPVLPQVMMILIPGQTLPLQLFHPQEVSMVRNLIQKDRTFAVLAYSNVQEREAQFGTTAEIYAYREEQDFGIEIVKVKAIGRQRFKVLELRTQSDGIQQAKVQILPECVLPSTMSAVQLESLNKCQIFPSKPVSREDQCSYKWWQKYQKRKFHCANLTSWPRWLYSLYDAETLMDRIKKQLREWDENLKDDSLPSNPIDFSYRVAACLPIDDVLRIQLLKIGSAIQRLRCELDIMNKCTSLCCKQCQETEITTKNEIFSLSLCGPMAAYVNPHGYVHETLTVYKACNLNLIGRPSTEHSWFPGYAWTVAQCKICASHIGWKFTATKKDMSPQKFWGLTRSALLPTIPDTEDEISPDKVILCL

Regarding `CCNC(=O)C[C@@H]1N=C(c2ccc(Cl)cc2)c2cc(B(O)O)ccc2-n2c(C)nnc21`, in assay [1], the result was inactive. Besides, the Activity in assay [2] was determined as 73%; in assay [3] it was 97%; in [4], 72%; in [5], 39%; in assay [6], 48%; in assay [7] it was 21%. In addition, the Activity in assay [8] stood at 37%.
Usually Emax stands for the greatest response seen or fitted, relative to the assay's reference. `Cc1ncsc1-c1ccc(CNC(=O)[C@@H]2C[C@@H](O)CN2C(=O)[C@@H](NC(=O)c2cccc(O)c2O)C(C)(C)C)cc1`: the Emax in assay [9] was found to be 47%; in [10], 80%. In addition, the Activity is 89% in assay [11]; 48% in assay [12]; 101% in assay [13]; 16% in assay [14]; 6% in assay [15].
